Laboratory results as given in the NIST ThermoML archive (doi:10.1016/j.jct.2016.08.005).

Conditions: Liquid, Vibrating tube method

Cc1cccs1 [2-methylthiophene]
Conditions | mass density [kg/m3]
283.15 K, 100 kPa | 1030.98
283.15 K, 2000 kPa | 1032.44
283.15 K, 5000 kPa | 1034.69
283.15 K, 7000 kPa | 1036.18
283.15 K, 10000 kPa | 1038.39
283.15 K, 15000 kPa | 1041.92
283.15 K, 20000 kPa | 1045.36
283.15 K, 25000 kPa | 1048.69
283.15 K, 30000 kPa | 1051.93
283.15 K, 35000 kPa | 1055.07
283.15 K, 40000 kPa | 1058.12
283.15 K, 45000 kPa | 1061.09
283.15 K, 50000 kPa | 1063.97
283.15 K, 55000 kPa | 1066.8
283.15 K, 60000 kPa | 1069.53
283.15 K, 65000 kPa | 1072.21
288.15 K, 100 kPa | 1025.61
288.15 K, 2000 kPa | 1027.12
288.15 K, 5000 kPa | 1029.45
288.15 K, 7000 kPa | 1030.97
288.15 K, 10000 kPa | 1033.22
288.15 K, 15000 kPa | 1036.86
288.15 K, 20000 kPa | 1040.39
288.15 K, 25000 kPa | 1043.79
288.15 K, 30000 kPa | 1047.1
288.15 K, 35000 kPa | 1050.32
288.15 K, 40000 kPa | 1053.43
288.15 K, 45000 kPa | 1056.47
288.15 K, 50000 kPa | 1059.42
288.15 K, 55000 kPa | 1062.27
288.15 K, 60000 kPa | 1065.07
288.15 K, 65000 kPa | 1067.79
293.15 K, 100 kPa | 1020.2
293.15 K, 2000 kPa | 1021.76
293.15 K, 5000 kPa | 1024.16
293.15 K, 7000 kPa | 1025.73
293.15 K, 10000 kPa | 1028.04
293.15 K, 15000 kPa | 1031.77
293.15 K, 20000 kPa | 1035.39
293.15 K, 25000 kPa | 1038.88
293.15 K, 30000 kPa | 1042.27
293.15 K, 35000 kPa | 1045.56
293.15 K, 40000 kPa | 1048.68
293.15 K, 45000 kPa | 1051.85
293.15 K, 50000 kPa | 1054.87
293.15 K, 55000 kPa | 1057.79
293.15 K, 60000 kPa | 1060.64
293.15 K, 65000 kPa | 1063.42
298.15 K, 100 kPa | 1014.79
298.15 K, 2000 kPa | 1016.39
298.15 K, 5000 kPa | 1018.85
298.15 K, 7000 kPa | 1020.48
298.15 K, 10000 kPa | 1022.84
298.15 K, 15000 kPa | 1026.7
298.15 K, 20000 kPa | 1030.4
298.15 K, 25000 kPa | 1033.98
298.15 K, 30000 kPa | 1037.45
298.15 K, 35000 kPa | 1040.82
298.15 K, 40000 kPa | 1044.09
298.15 K, 45000 kPa | 1047.25
298.15 K, 50000 kPa | 1050.33
298.15 K, 55000 kPa | 1053.31
298.15 K, 60000 kPa | 1056.23
298.15 K, 65000 kPa | 1059.07
303.15 K, 100 kPa | 1009.39
303.15 K, 2000 kPa | 1011.03
303.15 K, 5000 kPa | 1013.57
303.15 K, 7000 kPa | 1015.23
303.15 K, 10000 kPa | 1017.69
303.15 K, 15000 kPa | 1021.62
303.15 K, 20000 kPa | 1025.42
303.15 K, 25000 kPa | 1029.11
303.15 K, 30000 kPa | 1032.66
303.15 K, 35000 kPa | 1036.1
303.15 K, 40000 kPa | 1039.44
303.15 K, 45000 kPa | 1042.68
303.15 K, 50000 kPa | 1045.81
303.15 K, 55000 kPa | 1048.89
303.15 K, 60000 kPa | 1051.84
303.15 K, 65000 kPa | 1054.72
308.15 K, 100 kPa | 1003.95
308.15 K, 2000 kPa | 1005.62
308.15 K, 5000 kPa | 1008.23
308.15 K, 7000 kPa | 1009.96
308.15 K, 10000 kPa | 1012.46
308.15 K, 15000 kPa | 1016.53
308.15 K, 20000 kPa | 1020.43
308.15 K, 25000 kPa | 1024.2
308.15 K, 30000 kPa | 1027.84
308.15 K, 35000 kPa | 1031.36
308.15 K, 40000 kPa | 1034.78
308.15 K, 45000 kPa | 1038.08
308.15 K, 50000 kPa | 1041.29
308.15 K, 55000 kPa | 1044.4
308.15 K, 60000 kPa | 1047.43
308.15 K, 65000 kPa | 1050.39
313.15 K, 100 kPa | 998.5
313.15 K, 2000 kPa | 1000.23
313.15 K, 5000 kPa | 1002.93
313.15 K, 7000 kPa | 1004.7
313.15 K, 10000 kPa | 1007.28
313.15 K, 15000 kPa | 1011.45
313.15 K, 20000 kPa | 1015.45
313.15 K, 25000 kPa | 1019.32
313.15 K, 30000 kPa | 1023.04
313.15 K, 35000 kPa | 1026.65
313.15 K, 40000 kPa | 1030.14
313.15 K, 45000 kPa | 1033.52
313.15 K, 50000 kPa | 1036.79
313.15 K, 55000 kPa | 1039.99
313.15 K, 60000 kPa | 1043.07
313.15 K, 65000 kPa | 1046.08
318.15 K, 100 kPa | 993.03
318.15 K, 2000 kPa | 994.81
318.15 K, 5000 kPa | 997.59
318.15 K, 7000 kPa | 999.4
318.15 K, 10000 kPa | 1002.05
318.15 K, 15000 kPa | 1006.33
318.15 K, 20000 kPa | 1010.45
318.15 K, 25000 kPa | 1014.42
318.15 K, 30000 kPa | 1018.23
318.15 K, 35000 kPa | 1021.93
318.15 K, 40000 kPa | 1025.49
318.15 K, 45000 kPa | 1028.94
318.15 K, 50000 kPa | 1032.3
318.15 K, 55000 kPa | 1035.54
318.15 K, 60000 kPa | 1038.69
318.15 K, 65000 kPa | 1041.75
323.15 K, 100 kPa | 987.55
323.15 K, 2000 kPa | 989.38
323.15 K, 5000 kPa | 992.24
323.15 K, 7000 kPa | 994.11
323.15 K, 10000 kPa | 996.84
323.15 K, 15000 kPa | 1001.25
323.15 K, 20000 kPa | 1005.47
323.15 K, 25000 kPa | 1009.52
323.15 K, 30000 kPa | 1013.45
323.15 K, 35000 kPa | 1017.21
323.15 K, 40000 kPa | 1020.87
323.15 K, 45000 kPa | 1024.41
323.15 K, 50000 kPa | 1027.81
323.15 K, 55000 kPa | 1031.14
323.15 K, 60000 kPa | 1034.36
323.15 K, 65000 kPa | 1037.48
328.15 K, 100 kPa | 982.01
328.15 K, 2000 kPa | 983.93
328.15 K, 5000 kPa | 986.87
328.15 K, 7000 kPa | 988.79
328.15 K, 10000 kPa | 991.61
328.15 K, 15000 kPa | 996.12
328.15 K, 20000 kPa | 1000.47
328.15 K, 25000 kPa | 1004.64
328.15 K, 30000 kPa | 1008.65
328.15 K, 35000 kPa | 1012.52
328.15 K, 40000 kPa | 1016.24
328.15 K, 45000 kPa | 1019.86
328.15 K, 50000 kPa | 1023.37
328.15 K, 55000 kPa | 1026.73
328.15 K, 60000 kPa | 1030.01
328.15 K, 65000 kPa | 1033.2
333.15 K, 100 kPa | 976.49
333.15 K, 2000 kPa | 978.46
333.15 K, 5000 kPa | 981.49
333.15 K, 7000 kPa | 983.47
333.15 K, 10000 kPa | 986.36
333.15 K, 15000 kPa | 991.02
333.15 K, 20000 kPa | 995.46
333.15 K, 25000 kPa | 999.74
333.15 K, 30000 kPa | 1003.86
333.15 K, 35000 kPa | 1007.82
333.15 K, 40000 kPa | 1011.63
333.15 K, 45000 kPa | 1015.34
333.15 K, 50000 kPa | 1018.9
333.15 K, 55000 kPa | 1022.36
333.15 K, 60000 kPa | 1025.71
333.15 K, 65000 kPa | 1028.94
338.15 K, 100 kPa | 970.87
338.15 K, 2000 kPa | 972.92
338.15 K, 5000 kPa | 976.06
338.15 K, 7000 kPa | 978.09
338.15 K, 10000 kPa | 981.08
338.15 K, 15000 kPa | 985.87
338.15 K, 20000 kPa | 990.45
338.15 K, 25000 kPa | 994.85
338.15 K, 30000 kPa | 999.06
338.15 K, 35000 kPa | 1003.09
338.15 K, 40000 kPa | 1007.02
338.15 K, 45000 kPa | 1010.79
338.15 K, 50000 kPa | 1014.44
338.15 K, 55000 kPa | 1017.97
338.15 K, 60000 kPa | 1021.38
338.15 K, 65000 kPa | 1024.7
